Read-outs that look alike come from different tables or passages of the source.
Assays:
Type in all cases: cell-based
[1] = test system: Staph. aureus 1517; assay: standard MIC test, Staph. aureus 1517 (DST agar+5% horse blood); conditions: Staphylococcus aureus
[2] = test system: Proteus vulgaris WO 91; assay: standard MIC test, Proteus vulgaris WO 91 (DST agar+5% horse blood); conditions: WO91
[3] = test system: Serratia marcescens US20; assay: standard MIC test, Serratia marcescens US20 (DST agar+5% horse blood)
[4] = test system: Citrobacter freundii E8; assay: standard MIC test, Citrobacter freundii E8 (DST agar+5% horse blood)
[5] = test system: Ps aeruginosa A; assay: standard MIC test, Ps aeruginosa A (DST agar+5% horse blood)
[6] = test system: Proteus rettgeri WM 16; assay: standard MIC test, Proteus rettgeri WM 16 (DST agar+5% horse blood); conditions: Providencia rettgeri, WM16
[7] = test system: Salmonella typhimurium CT10; assay: standard MIC test, Salmonella typhimurium CT10 (DST agar+5% horse blood); conditions: Salmonella enterica
[8] = test system: Klebsiella aerogenes A; assay: standard MIC test, Klebsiella aerogenes A (DST agar+5% horse blood)
[9] = test system: Staph. aureus Oxford; assay: standard MIC test, Staph. aureus Oxford (DST agar+5% horse blood); conditions: Staphylococcus aureus
[10] = test system: Staph. aureus Russell; assay: standard MIC test, Staph. aureus Russell (DST agar+5% horse blood); conditions: Staphylococcus aureus
[11] = test system: Enterobacter cloacae M 1; assay: standard MIC test, Enterobacter cloacae M 1 (DST agar+5% horse blood); conditions: M1
[12] = test system: E. coli 0111; assay: standard MIC test, E. coli 0111 (DST agar+5% horse blood); conditions: Escherichia coli
[13] = test system: Proteus morganii I 580; assay: standard MIC test, Proteus morganii I 580 (DST agar+5% horse blood); conditions: Morganella morganii, I580
[14] = test system: Proteus mirabilis 0977; assay: standard MIC test, Proteus mirabilis 0977 (DST agar+5% horse blood)
[15] = test system: Shigella sonnei MB 11967; assay: standard MIC test, Shigella sonnei MB 11967 (DST agar+5% horse blood); conditions: MB11967
[16] = test system: Strep. faecalis I; assay: standard MIC test, Strep. faecalis I (DST agar+5% horse blood); conditions: Enterococcus faecalis
[17] = test system: Enterobacter cloacae N1; assay: minimum inhibitory concentration, Enterobacter cloacae N1 (DST agar+10% horse blood); conditions: Enterobacter cloacae, Enterobactor cloacae N1
Description: (§1) The minimum inhibitory concentrations (MIC) of the compound (e54) was determined using a standard DST agar+10% horse blood substrate. The tests used an undiluted inoculum of bacteria. […]
(§2) The minimum inhibitory concentrations (MIC) of this compound was determined using a standard DST agar+10% horse blood substrate.
(§3) The minimum inhibitory concentrations (MIC) of this compound was determined using a standard DST agar+10% horse blood substrate. The tests used an undiluted inoculum of bacteria.

[18] = test system: Streptococcus pneumoniae CN33; assay: minimum inhibitory concentration, Streptococcus pneumoniae CN33 (DST agar+10% horse blood)
Description: as §1, §2, §3

[19] = test system: Serratia marcescens US20; assay: minimum inhibitory concentration, Serratia marcescens US20 (DST agar+10% horse blood)
Description: as §1, §2, §3

[20] = test system: Streptococcus pyogenes CN10; assay: minimum inhibitory concentration, Streptococcus pyogenes CN10 (DST agar+10% horse blood)
Description: as §1, §2, §3

[21] = test system: Shigella sonnei MB 11967; assay: minimum inhibitory concentration, Shigella sonnei MB 11967 (DST agar+10% horse blood); conditions: MB11967
Description: as §1, §2, §3

[22] = test system: E. coli ESS; assay: minimum inhibitory concentration, E. coli ESS (DST agar+10% horse blood); conditions: Escherichia coli
Description: as §1, §2, §3

[23] = test system: Proteus mirabilis C977; assay: minimum inhibitory concentration, Proteus mirabilis C977 (DST agar+10% horse blood)
Description: as §1, §2, §3

[24] = test system: Salmonella typhimurium CT10; assay: minimum inhibitory concentration, Salmonella typhimurium CT10 (DST agar+10% horse blood); conditions: Salmonella enterica
Description: as §1, §2, §3

[25] = test system: Proteus rettgeri WM16; assay: minimum inhibitory concentration, Proteus rettgeri WM16 (DST agar+10% horse blood); conditions: Providencia rettgeri
Description: as §1, §2, §3

[26] = test system: Escherichia coli 0111; assay: minimum inhibitory concentration, Escherichia coli 0111 (DST agar+10% horse blood)
Description: as §1, §2, §3

[27] = test system: Pseudomonas aeruginosa A; assay: minimum inhibitory concentration, Pseudomonas aeruginosa A (DST agar+10% horse blood)
Description: as §1, §2, §3

[28] = test system: Citrobacter freundii E8; assay: minimum inhibitory concentration, Citrobacter freundii E8 (DST agar+10% horse blood)
Description: as §1, §2, §3

[29] = test system: Proteus morganii I580; assay: minimum inhibitory concentration, Proteus morganii I580 (DST agar+10% horse blood); conditions: Morganella morganii
Description: The minimum inhibitory concentrations (MIC) of the compound (e54) was determined using a standard DST agar+10% horse blood substrate. The tests used an undiluted inoculum of bacteria.
Sodium (5R,6S)-3-(2-acetamidoethylthio)--6-ethyl-7-oxo-1-azabicyclo[3.2.0]-hept-2-ene-2-carboxylate [drawing 60] p-Methoxycarbonylbenzyl (5R,6S)-3-(2-acetamidoethylthio)-6-ethyl-7-oxo-1-azabicyclo[3.2.0]hept-2-ene-2-carboxylate (e58) (18 mg) was added to the cathodic compartment of an H-type divided two-compartment electrochemical cell, with a mercury cathode and a platinum anode. The cell contained degassed 0.1 M n-Bu4 NI in dimethylformamide as electrolyte. The volume of the catholyte was about 15 ml [glacial acetic acid (about 10 mg) added] and the volume of the anolyte was about 8 ml. A potentiostat was employed to fix the potential of the cathode at -1.9 V with respect to the standard calomel electrode, and the initial current, about 56 mA, fell to about 15 mA after about 15 min. The catholyte was removed from the cell and the solvent was evaporated in vacuo. The residue was taken up in CH2 Cl2 (10 ml) and washed with water (10 ml). The aqueous phase was separated and washed with CH2 Cl2. The aqueous phase, containing the tetrabutylammonium salt corresponding to (e63) was passed through an Amberlite IR 120 (Na form) column (17×1 cm) and the eluate was reduced to low volume by evaporation in vacuo. The residue was passed through a Biogel P-2 column, to yield fractions containing sodium (5R,6S)-3-(2-acetamidoethylthio)-6-ethyl-7-oxo-1-azabicyclo[3.2.0]hept-2-ene-2-carboxylate (e63) having λmax 298 nm. The minimum inhibitory concentrations (MIC) of this compound was determined using a standard DST agar+10% horse blood substrate.
Sodium (5R,6S)-3-[(E)-2-acetamidoethenylthio]-6-ethyl-7-oxo-1-azabicyclo[3.2.0]hept-2-ene-2-carboxylate [drawing 68] p-Methoxycarbonylbenzyl (5R,6S)-3-[(E)-2-acetamidoethenylthio]-6-ethyl-7-oxo-1-azabicyclo[3.2.0]hept-2-ene-2-carboxylate (e72) (64 mg) in solution in 0.1 M (n-C4 H9)4 NBF4 in dry DMF was added to the cathodic compartment of a divided cylindrical electrochemical cell, with a mercury cathode and platinum anode. The volume of electrolyte in the cathodic compartment was about 25 ml, and in the anodic compartment about 10 ml. Acetic acid (12 mg) was added to the cathodic compartment and ethanol (250 mg) was added to the anodic compartment. The cell was degassed by passing argon for 30 min. The potentiostat was engaged to maintain the potential of the cathode at -1.9 V w.r.t. standard calomel electrode. The initial current (40 mA) fell to about 5 mA after 25 min. The solvent was removed from the catholyte by evaporation in vacuo and the residual oil was taken up in CH2 Cl2 (20 ml) and extracted with water (15 ml) containing sodium tetrafluoroborate (100 mg). The aqueous extract was washed with CH2 Cl2 and then passed down an Amberlite 1R 120 column (1×20 cm) in the sodium form. The volume of the eluate was reduced to about 5 ml by evaporation in vacuo and loaded onto a Biogel P-2 column (18×3 cm). Elution with water yielded fractions containing sodium (5R,6S)-3-[(E)-2-acetamidoethenylthio]-6-ethyl-7-oxo-1-azabicyclo[3.2.0]hept-2-ene-2-carboxylate (e73) λmax 308 nm. The minimum inhibitory concentrations (MIC) of this compound was determined using a standard DST agar+10% horse blood substrate.
Sodium (5R,6R)-3-[(E)-2-acetamidoethenylthio]-6-(1-benzylthioethyl)-7-oxo-1-azabicyclo[3.2.0]hept-2-ene-2-carboxylate [drawing 87] The least polar crystalline isomer of the ester (e93) (40 mg) obtained in Example 70 was added to a mixture of 5% Pd on C (60 mg) in 20% aqueous dioxan (5 ml) which had been prehydrogenated for 0.5 h. Hydrogenation was continued for 4 h and the mixture was filtered through Celite after adding NaHCO3 (7 mg) and water (10 ml). The solution was concentrated to a volume of about 10 ml and was then washed with ethyl acetate (3×30 ml). […]

[30] = test system: Klebsiella aerogenes A; assay: minimum inhibitory concentration, Klebsiella aerogenes A (DST agar+10% horse blood)
Description: as §1, §2, §3

[31] = test system: Staphylococcus aureus 1517; assay: minimum inhibitory concentration, Staphylococcus aureus 1517 (DST agar+10% horse blood)
Description: as §1, §2, §3

[32] = test system: Staphylococcus aureus Oxford; assay: minimum inhibitory concentration, Staphylococcus aureus Oxford (DST agar+10% horse blood)
Description: as §1, §2, §3

[33] = test system: Escherichia coli JT 39; assay: minimum inhibitory concentration, Escherichia coli JT 39 (DST agar+10% horse blood); conditions: JT39
Description: as §1, §2, §3

[34] = test system: Bacillus subtilis A; assay: minimum inhibitory concentration, Bacillus subtilis A (DST agar+10% horse blood)
Description: as §1, §2, §3

[35] = test system: Proteus vulgaris WO91; assay: minimum inhibitory concentration, Proteus vulgaris WO91 (DST agar+10% horse blood)
Description: as §1, §2, §3

[36] = test system: Streptococcus faecalis I; assay: minimum inhibitory concentration, Streptococcus faecalis I (DST agar+10% horse blood); conditions: Enterococcus faecalis
Description: as §1, §2, §3

[37] = test system: Staphylococcus aureus Russell; assay: minimum inhibitory concentration, Staphylococcus aureus Russell (DST agar+10% horse blood)
Description: as §1, §2, §3

| SMILES | MIC [17] | MIC [18] | MIC [19] | MIC [20] | MIC [21] | MIC [22] | MIC [23] | MIC [24] | MIC [25] | MIC [26] | MIC [27] | MIC [28] | MIC [30] | MIC [31] | MIC [32] | MIC [33] | MIC [34] | MIC [35] | MIC [36] | MIC [37] | also measured |
| --- | --- | --- | --- | --- | --- | --- | --- | --- | --- | --- | --- | --- | --- | --- | --- | --- | --- | --- | --- | --- | --- |
| CCSC(C)[C@H]1C(=O)N2C(C(=O)[O-])=C(S/C=C/NC(C)=O)C[C@H]12.[Na+] (stereo partly drawn) [e52, Sodium (5R,6R)-3-[(E)-2-acetamidoethenylthio]-6-(-1-ethylthio-ethyl)-7-oxo-1-azabicyclo[3.2.0]hept2-ene-2-carboxylate] |  |  |  |  |  |  |  |  |  |  |  |  |  |  |  |  |  |  |  |  | MIC [1]: 6.25 µg/mL; MIC [2]: 6.25 µg/mL; MIC [3]: 6.25 µg/mL; MIC [4]: 3.1 µg/mL; MIC [5]: 100 µg/mL; MIC [6]: 6.25 µg/mL; MIC [7]: 6.25 µg/mL; MIC [8]: 0.8 µg/mL; MIC [9]: 0.8 µg/mL; MIC [10]: 0.8 µg/mL; MIC [11]: 12.5 µg/mL; MIC [12]: 3.1 µg/mL; MIC [13]: 12.5 µg/mL; MIC [14]: 12.5 µg/mL; MIC [15]: 3.1 µg/mL; MIC [16]: 50 µg/mL |
| CC(=O)N/C=C/SC1=C(C(=O)[O-])N2C(=O)[C@H](C(C)SCc3ccccc3)[C@H]2C1.[Na+] (stereo partly drawn) [e94, Sodium (5R,6R)-3-[(E)-2-acetamidoethenylthio]-6-(1-benzylthioethyl)-7-oxo-1-azabicyclo[3.2.0]hept-2-ene-2-carboxylate] | 3.1 µg/mL | 0.2 µg/mL | 6.2 µg/mL | 0.4 µg/mL | 1.6 µg/mL | 0.4 µg/mL | 12.5 µg/mL | 1.6 µg/mL | 6.2 µg/mL | 3.1 µg/mL | 50 µg/mL | 6.2 µg/mL | 3.1 µg/mL | 50 µg/mL | 0.4 µg/mL | 3.1 µg/mL | 1.6 µg/mL | 6.2 µg/mL | 25 µg/mL | 0.8 µg/mL | MIC ([29]; Proteus morganii I580, DST agar+10% horse blood, read-out: MIC): 6.2 µg/mL |
| C=CCSC(C)[C@H]1C(=O)N2C(C(=O)[O-])=C(S/C=C/NC(C)=O)C[C@H]12.[Na+] (stereo partly drawn) [e96, Sodium (5R,6R)-3-[(E)-2-acetamidoethenylthio]-6-(1-allylthioethyl)-7-oxo-1-azabicyclo[3.2.0]hept-2-ene-2-carboxylate] | 25 µg/mL | ≤ 0.2 µg/mL | 50 µg/mL | 0.4 µg/mL | 25 µg/mL | 1.6 µg/mL | 100 µg/mL | 25 µg/mL | 50 µg/mL | 50 µg/mL | > 100 µg/mL | 50 µg/mL | 6.2 µg/mL | 12.5 µg/mL | 0.8 µg/mL | 25 µg/mL | 1.6 µg/mL | 25 µg/mL | 50 µg/mL | 1.6 µg/mL | MIC ([29]; I580): 50 µg/mL |
| CC(=O)N/C=C/SC1=C(C(=O)[O-])N2C(=O)[C@H](C(C)SCCNC(C)=O)[C@H]2C1.[Na+] (stereo partly drawn) [e98, Sodium (5R,6R)-3-[(E)-2-acetamidoethenylthio]-6-[1-(2-acetamidoethylthio)ethyl]-7-oxo-1-azabicyclo[3.2.0]hept-2-ene-2-carboxylate] | 5 µg/mL | 0.2 µg/mL | 12.5 µg/mL | 0.5 µg/mL | 5 µg/mL | 1.2 µg/mL | 12.5 µg/mL | 2.5 µg/mL | 12.5 µg/mL | 5 µg/mL | > 50 µg/mL | 5 µg/mL | 5 µg/mL | 12.5 µg/mL | 1.2 µg/mL | 5 µg/mL | 2.5 µg/mL | 12.5 µg/mL | 50 µg/mL | 2.5 µg/mL | MIC ([29]; I580): 25 µg/mL |

From patent publication US4278686A, “Carbapenum derivatives, a process for their preparation and their use in pharmaceutical compositions and intermediates” (Beecham Group Limited, priority 1978, dated 1981)
